Results: US20220220128A1, “HETEROCYCLIC COMPOUNDS AS KINASE INHIBITORS, COMPOSITIONS COMPRISING THE HETEROCYCLIC COMPOUND, AND METHODS OF USE THEREOF” (JS Innopharm (Shanghai) Ltd, priority 2019, published 2022)
pIC50: −log10 of the molar value.

Legend:
human KDR kinase = molecular target: T1, human KDR kinase (Homo sapiens, UniProt P35968); experiment: KDR Kinase Assay (LanthaScreen TR-FRET enzymatic assay); assay type: biochemical; conditions: 1.2 nM KDR, 92 μM ATP
T1 construct: purchased Carna 08-191
T1 sequence (P35968 20-1356): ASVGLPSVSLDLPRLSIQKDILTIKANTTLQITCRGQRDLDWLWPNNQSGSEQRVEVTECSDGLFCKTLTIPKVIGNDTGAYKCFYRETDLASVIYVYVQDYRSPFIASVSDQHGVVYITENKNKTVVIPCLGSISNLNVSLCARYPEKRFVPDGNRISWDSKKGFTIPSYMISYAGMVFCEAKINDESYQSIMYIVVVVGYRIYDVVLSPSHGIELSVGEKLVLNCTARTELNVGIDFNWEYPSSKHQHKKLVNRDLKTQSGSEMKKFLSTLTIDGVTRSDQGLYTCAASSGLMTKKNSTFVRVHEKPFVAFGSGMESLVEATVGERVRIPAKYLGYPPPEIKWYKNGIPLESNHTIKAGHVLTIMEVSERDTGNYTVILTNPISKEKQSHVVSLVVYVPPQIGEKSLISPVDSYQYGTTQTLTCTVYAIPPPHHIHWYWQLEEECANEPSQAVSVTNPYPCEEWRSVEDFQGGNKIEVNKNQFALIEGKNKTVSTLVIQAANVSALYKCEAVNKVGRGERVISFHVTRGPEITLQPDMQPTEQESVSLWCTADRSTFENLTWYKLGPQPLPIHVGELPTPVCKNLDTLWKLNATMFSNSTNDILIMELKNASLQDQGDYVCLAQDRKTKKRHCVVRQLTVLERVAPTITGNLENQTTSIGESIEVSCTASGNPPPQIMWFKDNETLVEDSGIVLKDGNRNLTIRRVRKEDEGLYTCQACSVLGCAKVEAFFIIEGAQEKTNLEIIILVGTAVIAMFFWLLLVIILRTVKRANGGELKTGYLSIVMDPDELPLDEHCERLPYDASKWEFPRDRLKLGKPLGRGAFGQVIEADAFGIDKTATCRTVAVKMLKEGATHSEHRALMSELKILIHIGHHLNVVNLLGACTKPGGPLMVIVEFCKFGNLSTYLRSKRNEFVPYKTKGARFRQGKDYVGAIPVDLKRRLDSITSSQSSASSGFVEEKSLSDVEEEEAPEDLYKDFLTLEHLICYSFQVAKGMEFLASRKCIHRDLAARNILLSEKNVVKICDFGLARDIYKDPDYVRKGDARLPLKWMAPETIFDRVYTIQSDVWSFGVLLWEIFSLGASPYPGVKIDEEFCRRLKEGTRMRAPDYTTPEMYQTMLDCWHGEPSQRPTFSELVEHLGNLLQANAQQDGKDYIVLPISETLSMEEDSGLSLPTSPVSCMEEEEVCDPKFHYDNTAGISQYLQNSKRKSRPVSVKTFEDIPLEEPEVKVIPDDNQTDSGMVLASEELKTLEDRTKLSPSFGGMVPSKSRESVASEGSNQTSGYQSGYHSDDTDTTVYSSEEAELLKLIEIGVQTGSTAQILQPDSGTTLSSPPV
Experimental: Compounds were tested in a LanthaScreen™ time-resolved fluorescence energy transfer (TR-FRET) enzymatic assay from Invitrogen. The assay used human KDR kinase (Carna 08-191). Test compounds were prepared and diluted in DMSO in 3-fold serial dilutions to 50× of the final testing concentrations. The compounds were then further diluted to 5× by the kinase reaction buffer (50 mM HEPES pH 7.5, 0.0015% Brij-35). The enzymatic reaction for compound testing was performed in a white 384-well polypropylene plate (Corning 3573) with a total reaction volume of 25 μl containing 1.2 nM KDR, 3 μM peptide substrate FAM-P22 (GL Biochem 112393), and 92 μM ATP (Sigma A7699-1G). The assay started with loading RET diluted in kinase reaction buffer to wells, followed by addition of equal volume of 5× compounds for 15-min incubation at the room temperature for pre-treatment. The enzymatic reaction was initiated by addition of mixture of the substrate and ATP prepared in kinase reaction buffer. After incubation at 28° C. for one hour, 25 μl of stopper buffer (a mixture of 100 mM HEPES pH 7.5 buffer, 0.015% Brij-35, 50 mM EDTA and 0.2% of coating reagent 3 (Cliper Lifesciences)) and produce TR-FRET signals. After 30 minutes of incubation at room temperature, the plate was read in a Caliper with the following settings: Excitation 340 nm (30)/Emission1 495 nm (10)/Emission2 520 nm (25). The TR-FRET values were dimensionless numbers that were calculated as the ratio of the acceptor ([…]) signal to the donor (Terbium) signal. Percent of control was calculated as the percentage of compound-treated vs 1% DMSO vehicle-treated. The dose-response curves were generated and the IC50s were calculated by nonlinear sigmoid curve fitting using XLFit.

human RET kinase = molecular target: T2, human RET kinase (Homo sapiens, UniProt P07949); experiment: RET Kinase Assay (LanthaScreen TR-FRET enzymatic assay); assay type: biochemical; conditions: 7 nM RET, 23 μM ATP
T2 construct: purchased Carna 08-159
T2 sequence (P07949 29-1114): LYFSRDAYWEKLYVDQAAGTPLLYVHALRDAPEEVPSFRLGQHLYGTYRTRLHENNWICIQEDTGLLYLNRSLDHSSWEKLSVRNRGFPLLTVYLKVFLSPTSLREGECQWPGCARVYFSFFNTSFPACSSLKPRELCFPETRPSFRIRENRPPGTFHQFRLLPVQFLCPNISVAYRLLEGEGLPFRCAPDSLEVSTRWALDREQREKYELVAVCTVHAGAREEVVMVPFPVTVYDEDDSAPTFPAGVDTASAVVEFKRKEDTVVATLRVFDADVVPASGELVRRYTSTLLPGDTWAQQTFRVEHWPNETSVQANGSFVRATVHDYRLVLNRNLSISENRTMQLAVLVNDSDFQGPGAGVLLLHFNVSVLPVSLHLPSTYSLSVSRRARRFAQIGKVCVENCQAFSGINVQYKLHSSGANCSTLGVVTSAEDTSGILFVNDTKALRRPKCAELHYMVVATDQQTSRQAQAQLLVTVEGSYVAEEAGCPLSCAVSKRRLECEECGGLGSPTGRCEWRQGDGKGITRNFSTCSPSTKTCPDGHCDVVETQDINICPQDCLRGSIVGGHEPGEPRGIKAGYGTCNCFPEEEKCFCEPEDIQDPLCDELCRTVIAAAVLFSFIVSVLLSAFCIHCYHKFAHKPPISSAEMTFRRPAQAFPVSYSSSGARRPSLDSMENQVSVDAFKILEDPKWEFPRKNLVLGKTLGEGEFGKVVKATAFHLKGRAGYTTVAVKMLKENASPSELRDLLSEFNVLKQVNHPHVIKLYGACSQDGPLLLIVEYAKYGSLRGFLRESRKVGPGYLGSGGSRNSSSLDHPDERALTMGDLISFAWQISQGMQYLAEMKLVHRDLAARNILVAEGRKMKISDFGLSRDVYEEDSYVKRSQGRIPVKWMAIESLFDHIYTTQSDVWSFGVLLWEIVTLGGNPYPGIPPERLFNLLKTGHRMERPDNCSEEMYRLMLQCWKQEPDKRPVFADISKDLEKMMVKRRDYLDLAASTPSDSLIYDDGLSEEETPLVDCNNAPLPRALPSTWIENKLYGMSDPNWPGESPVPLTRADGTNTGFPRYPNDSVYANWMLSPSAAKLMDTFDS
Experimental: Compounds were tested in a LanthaScreen™ time-resolved fluorescence energy transfer (TR-FRET) enzymatic assay from Invitrogen. The assay used human RET kinase (Carna 08-159). Test compounds were prepared and diluted in DMSO in 3-fold serial dilutions to 50× of the final testing concentrations. The compounds were then further diluted to 5× by the kinase reaction buffer (50 mM HEPES pH 7.5, 0.0015% Brij-35). The enzymatic reaction for compound testing was performed in a white 384-well polypropylene plate (Corning 3573) with a total reaction volume of 25 μl containing 7 nM RET, 3 μM peptide substrate FAM-P2 (GL Biochem 112394), and 23 μM ATP (Sigma A7699-1G). The assay started with loading RET diluted in kinase reaction buffer to wells, followed by addition of equal volume of 5× compounds for 15-min incubation at the room temperature for pre-treatment. The enzymatic reaction was initiated by addition of mixture of the substrate and ATP prepared in kinase reaction buffer. After incubation at 28° C. for one hour, 25 μl of stopper buffer (a mixture of 100 mM HEPES pH 7.5 buffer, 0.015% Brij-35, 50 mM EDTA and 0.2% of coating reagent 3 (Cliper Lifesciences)) and produce TR-FRET signals. After 30 minutes of incubation at room temperature, the plate was read in a Caliper with the following settings: Excitation 340 nm (30)/Emission1 495 nm (10)/Emission2 520 nm (25). The TR-FRET values were dimensionless numbers that were calculated as the ratio of the acceptor ([…]) signal to the donor (Terbium) signal. Percent of control was calculated as the percentage of compound-treated vs 1% DMSO vehicle-treated. The dose-response curves were generated and the IC50s were calculated by nonlinear sigmoid curve fitting using XLFit.

TT cells = experiment: TT Cell Proliferation Assay (WST-8, 8 days); assay type: cell-based; conditions: Homo sapiens, TT, 192 h, growth inhibition in TT cells, read-out: TT Cellular Activity
Experimental: Compounds disclosed herein were tested for the inhibition of RET by a cancer cell proliferation assay commonly known as MTT assay. In this assay, a complete media was prepared by adding 10% fetal bovine serum to RPMI-1640 medium (Life technology). TT cells were added to each of 88 wells of a 96 well plate at a seeding density of 6,000 cells/well/90 μL. The cells were allowed to attach to the plate by incubating at 37° C. for 24 hours. The compound was dissolved in DMSO (SIGMA). A solution of test compound was prepared in complete media by serial dilution to obtain the following concentrations: 50 μM, 15 μM, 5 μM, 1.5 μM, 0.5 μM, 0.15 μM, 0.05 μM, 0.015 μM and 0.005 μM. The test compound solution (10 μL) was added to each of 80 cell-containing wells. The final concentrations of the compound were following: 5 μM, 1.5 μM, 0.5 μM, 0.15 μM, 0.05 μM, 0.015 μM, 0.005 μM, 0.0015 μM and 0.0005 μM. The final concentration of DMSO is 0.5%. To the 8 remaining cell-containing wells, only complete media (containing 0.5% DMSO) was added to form a control group in order to measure maximal proliferation. To the remaining 8 empty wells, complete media was added to for a vehicle control group in order to measure background. The plates were incubated at 37° C. for 8 days. 10 μL WST-8 solution (DOJINDO, Cell Counting KIT-8) was added to each well. The plates were further incubated at 37° C. for 5 hours, and then read for the absorbance using a microplate reader at 450 nm. The IC50 was calculated using GraphPad Prism.

Compound	pIC50 (human KDR kinase)	pIC50 (human RET kinase)	pIC50 (TT cells)
CC(C)C(O)C(=O)N[C@H]1[C@@H]2CN(c3ccc(-c4cc(-c5cnn(C)c5)cn5ncc(C#N)c45)cc3)C[C@@H]21 (stereo partly drawn) [Example 16, N-((1R,5S,6s)-3-(4-(3-cyano-6-(1-methyl-1H-pyrazol-4-yl)pyrazolo[1,5-a]pyridin-4-yl)phenyl)-3-azabicyclo[3.1.0]hexan-6-yl)-2-hydroxy-3-methylbutanamide]	7.30 to 8.00	≥ 8.00	7.30 to 8.00
COc1ccc(C(=O)N[C@]2(C)C[C@H]3CN(c4ccc(-c5cc(-c6cnn(C)c6)cn6ncc(C#N)c56)cn4)C[C@H]3C2)cn1 [Example 58, N-((3aR,5s,6aS)-2-(5-(3-cyano-6-(1-methyl-1H-pyrazol-4-yl)pyrazolo[1,5-a]pyridin-4-yl)pyridin-2-yl)-5-methyloctahydro-cyclopenta[c]pyrrol-5-yl)-6-methoxy-nicotinamide]	≥ 8.00	≥ 8.00	7.30 to 8.00
Cc1ccc(F)cc1C(=O)NC[C@@H]1[C@H]2CN(c3ccc(-c4cc(-c5cnn(C)c5)cn5ncc(C#N)c45)cn3)C[C@@H]12 [Example 81, N-(((1R,5S,6s)-3-(5-(3-cyano-6-(1-methyl-1H-pyrazol-4-yl)pyrazolo[1,5-a]pyridin-4-yl)pyridin-2-yl)-3-azabicyclo[3.1.0]hexan-6-yl)methyl)-5-fluoro-2-methylbenzamide]	7.30 to 8.00	≥ 8.00	≥ 8.00
CCOc1cc(-c2ccc(N3C4CC5CC3CC(C(=O)Nc3ccc(OC)nc3)(C5)C4)nc2)c2c(C#N)cnn2c1 [Example 134, (1R3S,5s,7s)-2-(5-(3-cyano-6-ethoxypyrazolo[1,5-a]pyridin-4-yl)pyridin-2-yl)-N-(6-methoxypyridin-3-yl)-2-azaadamantane-5-carboxamide]		≥ 8.00	
CCOc1cc(-c2ccc(N3C[C@@H]4[C@@H](CNC(=O)c5ncccc5Cl)[C@@H]4C3)nc2)c2c(C#N)cnn2c1 [Example 94, 3-chloro-N-(((1R,5S,6s)-3-(5-(3-cyano-6-ethoxypyrazolo[1,5-a]pyridin-4-yl)pyridin-2-yl)-3-azabicyclo[3.1.0]hexan-6-yl)methyl)picolinamide]	7.00 to 7.30		7.30 to 8.00
COc1ccc(C(=O)N[C@]2(C)C[C@H]3CN(c4ccc(-c5cc(-c6ccn(C)n6)cn6ncc(C#N)c56)cn4)C[C@H]3C2)cn1 [Example 122, N-((3aR,5s,6aS)-2-(5-(3-cyano-6-(1-methyl-1H-pyrazol-3-yl)pyrazolo[1,5-a]pyridin-4-yl)pyridin-2-yl)-5-methyloctahydrocyclopenta[c]pyrrol-5-yl)-6-methoxynicotinamide]	7.30 to 8.00	≥ 8.00	
COc1ccc(NC(=O)C23CC4CC(C2)N(c2cnc(-c5cc(-c6cnn(C)c6)cn6ncc(C#N)c56)cn2)C(C4)C3)cn1 [Example 114, (1R,3S,5s,7s)-2-(5-(3-cyano-6-(1-methyl-1H-pyrazol-4-yl)pyrazolo[1,5-a]pyridin-4-yl)pyrazin-2-yl)-N-(6-methoxypyridin-3-yl)-2-azaadamantane-5-carboxamide]		≥ 8.00	
CCOc1cc(-c2ccc(N3C[C@H]4C[C@@H](NC(=O)c5ncccc5Cl)C[C@H]4C3)nc2)c2c(C#N)cnn2c1 [Example 48, 3-chloro-N-((3aR,5r,6aS)-2-(5-(3-cyano-6-ethoxypyrazolo[1,5-a]pyridin-4-yl)pyridin-2-yl)octahydrocyclopenta[c]pyrrol-5-yl)picolinamide]	7.30 to 8.00		≥ 8.00
CCOc1cc(-c2ccc(N3C[C@@H]4[C@H](C3)[C@H]4NC(=O)c3ncccc3Cl)nc2)c2c(C#N)cnn2c1 [Example 38, 3-chloro-N-((1R,5S,6s)-3-(5-(3-cyano-6-ethoxypyrazolo[1,5-a]pyridin-4-yl)pyridin-2-yl)-3-azabicyclo[3.1.0]hexan-6-yl)picolinamide]	< 7.00		< 7.00
CC(=O)NC12CC3CC(C1)N(c1ccc(-c4cc(OCC(C)(C)O)cn5ncc(C#N)c45)cn1)C(C3)C2 [Example 130, N-((1R,3S,5s,7s)-2-(5-(3-cyano-6-(2-hydroxy-2-methylpropoxy)pyrazolo[1,5-a]pyridin-4-yl)pyridin-2-yl)-2-azaadamantan-5-yl)acetamide]	< 7.00	≥ 8.00	
Cn1cc(-c2cc(-c3ccc(N4C[C@@H]5[C@@H](CNC(=O)c6c(F)cccc6Cl)[C@@H]5C4)nc3)c3c(C#N)cnn3c2)cn1 [Example 187, 2-chloro-N-(((1R,5S,6s)-3-(5-(3-cyano-6-(1-methyl-1H-pyrazol-4-yl)pyrazolo[1,5-a]pyridin-4-yl)pyridin-2-yl)-3-azabicyclo[3.1.0]hexan-6-yl)methyl)-6-fluorobenzamide]	≥ 8.00	≥ 8.00	
CCOc1cc(-c2ccc(N3C[C@@H]4[C@H](C3)[C@@H]4NC(=O)c3ncccc3Cl)nc2)c2c(C#N)cnn2c1 [Example 43, 3-chloro-N-((1R,5S,6r)-3-(5-(3-cyano-6-ethoxypyrazolo[1,5-a]pyridin-4-yl)pyridin-2-yl)-3-azabicyclo[3.1.0]hexan-6-yl)picolinamide]	< 7.00		< 7.00
CCOc1cc(-c2ccc(N3C[C@H]4C[C@H](NC(=O)c5ncccc5Cl)C[C@H]4C3)nc2)c2c(C#N)cnn2c1 [Example 49, 3-chloro-N-((3aR,5s,6aS)-2-(5-(3-cyano-6-ethoxypyrazolo[1,5-a]pyridin-4-yl)pyridin-2-yl)octahydrocyclopenta[c]pyrrol-5-yl)picolinamide]	7.30 to 8.00		7.30 to 8.00
COc1ccc(NC(=O)[C@H]2[C@@H]3CN(c4ccc(-c5cc(OCC(C)(C)O)cn6ncc(C#N)c56)cn4)C[C@@H]32)cn1 [Example 175, (1R,5S,6r)-3-(5-(3-cyano-6-(2-hydroxy-2-methylpropoxy)pyrazolo[1,5-a]pyridin-4-yl)pyridin-2-yl)-N-(6-methoxypyridin-3-yl)-3-azabicyclo[3.1.0]hexane-6-carboxamide]		≥ 8.00	
CCOc1cc(-c2ccc(N3C[C@@H]4C[C@@](C)(NC(=O)c5ncccc5Cl)C[C@@H]4C3)nc2)c2c(C#N)cnn2c1 [Example 51, 3-chloro-N-((3aR,5s,6aS)-2-(5-(3-cyano-6-ethoxypyrazolo[1,5-a]pyridin-4-yl)pyridin-2-yl)-5-methyloctahydrocyclopenta[c]pyrrol-5-yl)picolinamide]	7.30 to 8.00		7.30 to 8.00
